How the values were obtained:
[1] = test system: Adipose-derived stem cells; assay: Migration assay (mechanical wound, Incucyte zoom); assay type: cell-based; settings: 0.1, 1, 10, 50 μM, 24 and 48 hours; FIG. 5 and FIG. 6
Method: Adipose-derived stem cells are implanted into a 96-well plate in a number of 3×10^4/well and cultured for 24 hours. Then, media change into high-glucose DMEM is carried out and the cells are cultured overnight. After starvation, a mechanical wound is made and the cells are treated with each of the compounds according to Examples at a different concentration (0.1, 1, 10, 50 μM). Next, the cells are incubated for 24 hours and 48 hours under the conditions of 37° C. and 5% CO2. Then, the Incucyte zoom (Essen Bioscience, USA) is photographed from the time point of treatment with each compound at an interval of 1 hour to analyze the migration of ASC.

[2] = molecular target: T1, human cystic fibrosis conductance transmembrane regulator (CFTR) (Homo sapiens, UniProt P13569); assay: Effect upon CFTR chloride ion channel activity (YFP fluorescence quenching by iodide influx in FRT cells); assay type: cell-based; settings: for Emax at 30 µM: FRT, 10 min, final concentration of 30 μM, reaction for 10 minutes, ratio based on the CFTR activity maximized by forskolin
T1 construct: expressed in transfected cells; host or cells: FRT cells (Fischer rat thyroid epithelial cells)
Method: FRT cells expressing […] specific to human cystic fibrosis conductance transmembrane regulator (CFTR) and iodide ions are cultured in the Coon's modified F-12 culture medium for 48 hours on a 96-well plate. Each well of the plate containing the cultured cells is washed three times with 200 μl of PBS buffer, and then 100 μl of PBS buffer is added to each well. The indolizino[3,2-c]quinoline derivative according to each Example is introduced to each well to a final concentration of 30 μM, followed by reaction for 10 minutes. After the completion of the reaction, the 96-well is mounted to a FLUOstar Omega microplate reader (BMG LABTECH) and 100 μl of NaI solution is added to each well. Then, YFP fluorescence reduced by the iodide ions introduced to the cells through CFTR is recorded at an interval of 0.4 seconds for 24 seconds in total, thereby evaluating the effect of each compound upon CFTR activity.
The effect of each indolizino[3,2-c]quinoline derivative upon CFTR chloride ion channel activity is calculated as an activity ratio based on the CFTR activity maximized by a well-known CFTR agonist, forskolin.

[3] = test system: Adipose-derived stem cells (ASC); assay: Proliferation/viability MTT assay, adipose-derived stem cells; assay type: cell-based; settings: 0.1-100 μM, 24 and 48 hours, FIG. 2
Method: (§1) Adipose-derived stem cells (ASC) and melanoma cells (B16 melanoma cells) are cultured in high-glucose Dulbecco's modified Eagle's medium (DMEM) with 10% fetal bovine serum (FBS) introduced thereto. Each type of cells is cultured in an incubator under the conditions of 37° C. and 5% CO2.
(§2) Cell survivability and cytotoxicity are determined in a 96-well plate by MTT assay. Each type of cells is implanted into a 6-well plate in a number of 3×10^4/well (ASC) and 4×10^4/well and cultured for 24 hours. Then, media change into high-glucose DMEM is carried out for both ASC and B16 and cultured overnight. After starvation, the cells are treated with each of the compounds according to Examples at a different concentration (0.1, 1, 10, 50, 100 μM), and further incubated for 24 hours and 48 hours under the conditions of 37° C. and 5% CO2. Then, MTT solution (5 mg/ml in PBS) is added to each well in an amount corresponding to 1/20 of the media volume, and incubation is carried out at 37° C. for 2 hours so that the cells are colored. After that, the supernatant is removed and dimethyl sulfoxide is added to carry out discoloration. The solution is determined by using an enzyme-linked immunosorbent assay (ELISA) reader at a wavelength of 595 nm.

[4] = test system: Adipose-derived stem cells (ASC) and melanoma cells (B16 melanoma cells); assay: Cytotoxicity by MTT assay; assay type: cell-based; settings: at a high concentration of 100 μM, FIG. 3 and FIG. 4
Method: as §1, §2

T1 sequence (P13569 whole entry): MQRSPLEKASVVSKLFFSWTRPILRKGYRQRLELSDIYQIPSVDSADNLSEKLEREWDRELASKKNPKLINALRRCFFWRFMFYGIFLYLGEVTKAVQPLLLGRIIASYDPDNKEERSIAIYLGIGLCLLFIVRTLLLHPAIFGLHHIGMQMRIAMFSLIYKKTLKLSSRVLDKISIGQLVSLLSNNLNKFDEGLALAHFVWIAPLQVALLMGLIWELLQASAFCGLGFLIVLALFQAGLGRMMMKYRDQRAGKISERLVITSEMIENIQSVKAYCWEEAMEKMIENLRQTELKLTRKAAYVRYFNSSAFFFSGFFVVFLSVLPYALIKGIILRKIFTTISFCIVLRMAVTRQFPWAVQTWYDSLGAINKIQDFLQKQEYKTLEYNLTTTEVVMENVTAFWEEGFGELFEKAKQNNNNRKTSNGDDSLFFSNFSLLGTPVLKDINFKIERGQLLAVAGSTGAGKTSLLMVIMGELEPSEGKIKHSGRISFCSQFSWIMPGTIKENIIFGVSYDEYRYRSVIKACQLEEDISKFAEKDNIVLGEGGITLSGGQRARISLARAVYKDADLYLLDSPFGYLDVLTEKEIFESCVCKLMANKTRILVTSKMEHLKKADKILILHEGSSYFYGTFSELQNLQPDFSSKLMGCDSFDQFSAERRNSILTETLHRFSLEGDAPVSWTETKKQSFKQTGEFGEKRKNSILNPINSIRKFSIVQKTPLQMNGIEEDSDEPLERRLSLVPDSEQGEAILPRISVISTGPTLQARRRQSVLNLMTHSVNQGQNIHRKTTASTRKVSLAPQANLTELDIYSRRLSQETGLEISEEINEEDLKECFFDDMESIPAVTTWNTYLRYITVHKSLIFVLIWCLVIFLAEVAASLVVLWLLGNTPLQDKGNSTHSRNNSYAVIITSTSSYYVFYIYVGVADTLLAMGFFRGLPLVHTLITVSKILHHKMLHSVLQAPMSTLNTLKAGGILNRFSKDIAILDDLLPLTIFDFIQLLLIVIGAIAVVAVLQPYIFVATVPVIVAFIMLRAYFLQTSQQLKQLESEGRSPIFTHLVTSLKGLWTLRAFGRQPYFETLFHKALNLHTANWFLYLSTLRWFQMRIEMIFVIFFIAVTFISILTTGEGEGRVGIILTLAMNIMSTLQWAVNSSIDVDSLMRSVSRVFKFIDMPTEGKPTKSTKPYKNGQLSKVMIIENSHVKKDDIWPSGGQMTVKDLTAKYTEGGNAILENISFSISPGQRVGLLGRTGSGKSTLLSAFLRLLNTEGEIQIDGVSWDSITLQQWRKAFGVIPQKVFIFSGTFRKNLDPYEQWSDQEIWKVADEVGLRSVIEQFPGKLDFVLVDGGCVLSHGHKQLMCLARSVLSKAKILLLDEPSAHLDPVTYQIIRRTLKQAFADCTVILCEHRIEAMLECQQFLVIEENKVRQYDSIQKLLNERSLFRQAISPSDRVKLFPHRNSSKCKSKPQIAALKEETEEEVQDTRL

Structure (SMILES) | melting point | migration ability of adipose-derived stem cells [1] | Emax at 30 µM [2] | proliferation of adipose-derived stem cells [3] | cytotoxicity [4] | CFTR activity ratio, result in words ([2]; 30 μM, comment on Table 2)
c1ccc2c(-c3nc4ccccc4c4cc5ccccn5c34)cccc2c1 [Example 12, 6-(Naphthalen-1-yl)indolizino[3,2-c]quinoline] | 205.6 to 206.3 °C | has migration ability | 44% | highly effective | no toxicity | –
c1ccc(-c2nc3ccccc3c3cc4ccccn4c23)nc1 [Example 14, 6-(Pyridin-2-yl)indolizino[3,2-c]quinoline] | 177.9 to 178.3 °C | – | 82% | highly effective | – | high activity ratio
Cc1cccn2c1cc1c3ccccc3nc(-c3ccco3)c12 [Example 23, 6-(Furan-2-yl)-11-methylindolizino[3,2-c]quinoline] | 112.4 to 113.2 °C | – | – | highly effective | – | –
Brc1ccc2cc3c4ccccc4nc(-c4cccc5ccccc45)c3n2c1 [Example 27, 9-Bromo-6-(4naphthalen-1-yl)indolizino[3,2-c]quinoline] | 212 to 212.7 °C | has migration ability | – | highly effective | no toxicity | –

From patent US9296751B1, “Indolizino[3,2-c]quinoline derivatives, pharmaceutically acceptable salt thereof, preparation method thereof and pharmaceutical composition for treatment of cystic fibrosis containing the same as active ingredient” (INDUSTRY-ACADEMIC COOPERATION FOUNDATION, YONSEI UNIVERSITY, priority 2014, dated 2016)
